Assay results: publication PMC7311426, “An amphipathic peptide with antibiotic activity against multidrug-resistant Gram-negative bacteria” (Nature Communications, 2020)
Residues, ends and D or L forms follow the SMILES beside them.

Tests used:
Assay in all cases: microbe, parasite or virus in culture
[1] = system: S. aureus; conditions: S. aureus ATCC 25923 MSSA; MHB; mode of 6 replicates
Procedure: (§1) Antimicrobial activity of arenicin-3 and its analogs was tested against a panel of bacterial and yeast strains by in vitro broth microdilution (BMD) assay with minimum inhibitory concentration (MIC) determination. Strains were purchased from American Type Culture Collection (ATCC) or obtained from clinical collaborators (full strain profiles provided in Supplementary Data 3). All peptides were prepared in Ringer’s acetate solution, and subsequently diluted fresh in water for each independent assay.
(§2) Assays were performed in Mueller Hinton broth (MHB; BD, Cat. No. 211443) for bacteria, and yeast extract-peptone dextrose (YPD; Sigma-Aldrich, Y1500) for yeast. The concentrations of the peptides and comparator antibiotics/antifungals in the assay wells ranged from either 128 or 64 μg mL^−1, to 0.06 or 0.03 μg mL^−1 as a 12-point dose response plated as a 2-fold dilution series across the wells of the plate in duplicate for each independent biological replicate, using a final cell density of 5 × 10^5 CFU mL^−1 and 2.5 × 10^3 CFU mL^−1 for bacteria and yeast respectively. Final assay volumes were 100 μL per well with MICs determined visually following 18-20 h incubation at 37 °C for bacteria, 24 h incubation at 35 °C for Candida albicans, and 24 h incubation at 35 °C with resazurin addition (0.006%; Sigma-Aldrich, Cat # R7017) for a further 3 h for Cryptococcus neoformans, without shaking. Additional bacterial and yeast susceptibility assays were performed in Cation-Adjusted Mueller Hinton Broth (CAMHB; BD, Cat No. 212322) and Roswell Park Memorial Institute (RPMI) 1640 culture medium (Life Technologies Australia, Cat No. 21870092), respectively, as recommended by CLSI guidelines (M07 11th ed[36] and M27 4th ed[37]). […] Agarose MICs were determined in MHB with 1% agarose (Bioline molecular grade; Cat no: BIO-41025; high purity, high gel strength). All experiments were performed a minimum of six replicates (n ≥ 6).

[2] = system: K. pneumoniae; conditions: K. pneumoniae ATCC 13883 type strain (polymyxin/colistin heteroresistant); MHB; mode of 6 replicates
Procedure: as §1, §2

[3] = system: P. aeruginosa; conditions: P. aeruginosa ATCC 27853 control strain; MHB; mode of 6 replicates
Procedure: as §1, §2

[4] = system: E. coli; conditions: E. coli ATCC 25922 FDA control strain; MHB; mode of 6 independent biological replicates
Procedure: as §1, §2

[5] = system: A. baumannii; conditions: A. baumannii ATCC 19636 type strain; MHB; mode of 6 replicates
Procedure: as §1, §2

SMILES	BMD MIC [1]	BMD MIC [2]	BMD MIC [3]	BMD MIC [4]	BMD MIC [5]
CC(C)[C@@H]1NC(=O)[C@H](Cc2ccc(O)cc2)NC(=O)[C@H](Cc2c[nH]c3ccccc23)NC(=O)[C@@H](NC(=O)CN)CSSC[C@@H](C(=O)N[C@@H](CC(N)=O)C(=O)O)NC(=O)[C@H](CCCNC(=N)N)NC(=O)[C@H](CCCNC(=N)N)NC(=O)[C@H](Cc2ccc(O)cc2)NC(=O)[C@@H]2CSSC[C@H](NC1=O)C(=O)N[C@@H](C)C(=O)N[C@@H](CCCNC(=N)N)C(=O)N[C@@H](CCCNC(=N)N)C(=O)N[C@@H](CC(N)=O)C(=O)NCC(=O)N[C@@H](C)C(=O)N[C@@H](CCCNC(=N)N)C(=O)N[C@@H](C(C)C)C(=O)N2 [AB0016] (HELM PEPTIDE1{G.C.W.Y.V.C.A.R.R.N.G.A.R.V.C.Y.R.R.C.N}$PEPTIDE1,PEPTIDE1,2:R3-19:R3|PEPTIDE1,PEPTIDE1,6:R3-15:R3$$$V2.0)	>64 µg/mL	2 µg/mL	1 µg/mL	1 µg/mL	1 µg/mL
CC(C)[C@@H]1NC(=O)[C@H](Cc2ccc(O)cc2)NC(=O)[C@H](Cc2c[nH]c3ccccc23)NC(=O)[C@@H](NC(=O)[C@H](Cc2ccccc2)NC(=O)CN)CSSC[C@@H](C(N)=O)NC(=O)[C@H](CCCNC(=N)N)NC(=O)[C@H](CCCNC(=N)N)NC(=O)[C@H](Cc2ccc(O)cc2)NC(=O)[C@@H]2CSSC[C@H](NC1=O)C(=O)N[C@@H](C)C(=O)N[C@@H](CCCNC(=N)N)C(=O)N[C@@H](CCCNC(=N)N)C(=O)N[C@@H](CC(N)=O)C(=O)NCC(=O)N[C@@H](C)C(=O)N[C@@H](CCCNC(=N)N)C(=O)N[C@@H](C(C)C)C(=O)N2 [AB0017] (HELM PEPTIDE1{G.F.C.W.Y.V.C.A.R.R.N.G.A.R.V.C.Y.R.R.C.[am]}$PEPTIDE1,PEPTIDE1,3:R3-20:R3|PEPTIDE1,PEPTIDE1,7:R3-16:R3$$$V2.0)	64 µg/mL	0.125 µg/mL	0.25 µg/mL	0.5 µg/mL	1 µg/mL
CC(C)[C@@H]1NC(=O)[C@H](Cc2ccc(O)cc2)NC(=O)[C@H](Cc2c[nH]c3ccccc23)NC(=O)[C@@H](NC(=O)[C@@H](N)Cc2ccccc2)CSSC[C@@H](C(=O)N[C@@H](CC(N)=O)C(=O)O)NC(=O)[C@H](CCCNC(=N)N)NC(=O)[C@H](CCCNC(=N)N)NC(=O)[C@H](Cc2ccc(O)cc2)NC(=O)[C@@H]2CSSC[C@H](NC1=O)C(=O)N[C@@H](C)C(=O)N[C@@H](CCCNC(=N)N)C(=O)N[C@@H](CCCNC(=N)N)C(=O)N[C@@H](CC(N)=O)C(=O)NCC(=O)N[C@@H](C)C(=O)N[C@@H](CCCNC(=N)N)C(=O)N[C@@H](C(C)C)C(=O)N2 [AB0015] (HELM PEPTIDE1{F.C.W.Y.V.C.A.R.R.N.G.A.R.V.C.Y.R.R.C.N}$PEPTIDE1,PEPTIDE1,2:R3-19:R3|PEPTIDE1,PEPTIDE1,6:R3-15:R3$$$V2.0)	>64 µg/mL	2 µg/mL	1 µg/mL	0.5 µg/mL	0.5 µg/mL
